Data reported in paper PMC5320730, “Synthetic curcumin derivative DK1 possessed G2/M arrest and induced apoptosis through accumulation of intracellular ROS in MCF-7 breast cancer cells” (Cancer Cell International, 2017).

Tests used:
[1] = tested on: p53 in MCF-7 cells; test: Western blot analysis of p53; format: cell-based, human; conditions: for promotion of p53 protein compared to control: MCF-7, 25 µM, western blot
Protocol: (§1) Total protein was extracted from harvested cell with Radioimmunoprecipitation assay (RIPA) buffer supplemented with phosphatase inhibitor cocktail (Roche, Canada) and the concentration was quantified by Bradford assay (Sigma, USA). Then, 100 μg of extracted protein was subjected to sodium dodecyl sulfate polyacrylamide gel electrophoresis (SDS-PAGE) (Bio-Rad, USA), transferred to nitrocellulose membrane, block with 0.5% skimmed milk overnight, washed with Tris-buffered saline tween (TBST) buffer and incubated with primary antibodies (anti-CDC2, anti-pCDC2 (Tyr15), anti-p53, and anti-β-actin at a dilution of 1:1000 (Abcam, USA) for 1 h. After that, membranes were washed, incubated with 1:5000 diluted goat anti-rabbit IgG H&L conjugated to […] (Abcam, USA) and developed under chemiluminescence condition (Super Signal West Pico, Pierce, USA) using the ChemiDoc XRS (Bio-Rad, USA). Differential level of evaluated protein in control and DK1 treated MCF-7 was calculated based on the bands intensity analyzed using the Quantity One 1D Analysis software (Bio-rad, USA).

[2] = tested on: MCF-7 cells; test: MTT cell viability assay, MCF-7; format: cell-based, human; conditions: for IC50: Homo sapiens, MCF7, MCF-7, MTT
Protocol: (§2) Promyelocytic leukemia HL60, hepatoblastoma HepG2, breast cancer MCF-7 and MDA-MB-231 cells were purchased from ATCC (USA) and cultured in RPMI-1640 media (Sigma, USA), supplemented with 10% fetal bovine serum (FBS) (PAA, USA). Normal epithelial MCF-10A cells (ATCC, USA) was maintain in DMEM-F12 (Sigma, USA) supplemented with hydrocortisone (0.5 μg/mL), insulin (10 μg/mL), human epidermal growth factor (hEGF) (20 ng/mL) (Sigma, USA) and 10% FBS (PAA, USA).
(§3) MTT cell viability assay was used to evaluate the effect of DK1 on viability of HL-60, HepG2, MCF-7, MDA-MB-231 and MCF-10A cells. Briefly, each type of cells (8 × 10^4cells/well) was seeded in 96-well plate in 37 °C CO2 incubator overnight. Then, DK1 was added at concentration ranging between 200 and 3.125 µM by twofold serial dilution. Untreated control was prepared simultaneously. After that, the cells were incubated for 24, 48 and 72 h at 37 °C in 5% CO2 incubator. After the incubation period, all well was added with 20 μL of MTT solution (5 mg/mL) and further incubated for 3 h. Subsequently, 170 μL of supernatant from each well was discarded, 100 μL of dimethyl sulfoxide (DMSO) was added to solubilize the purple formazan crystal and the absorbance was measured at a wavelength of 570 nm by Enzyme-linked immunosorbent assay (ELISA) plate reader (Bio-tek instruments, USA). All cell lines were assayed for three biological replicates each with triplicates. Percentage of cell viability was calculated using the following formula: Cell viability%=OD sample/OD control×100%
(§4) IC50 value (concentration of DK1 that reduce 50% of cell viability compared to control cell) was determined from the graph of cell viability (%) vs DK1 concentration. Subsequently, selective index, which indicating selectivity of DK1 against cancerous and normal breast cell lines, was calculated by: Selective indexSI=IC50of DK1on normal MCF-10A cell line/IC50on breast cancerous cell lineHL60/HepG2/MCF-7/MDA-MB-231

[3] = tested on: MCF-7 cells; test: Flow cytometry AnnexinV-FITC/PI apoptosis analysis; format: cell-based, human
Protocol: Apoptosis of DK1 treated MCF-7 was compared with the control cell by Flow cytometry AnnexinV-FITC/PI apoptosis assay. Briefly, harvested cells were resuspended in 100 μL of 1× binding buffer and stained with 5 μL each of AnnexinV-FITC and propidiumiodide. After 15 min of incubation, the cells were added with 400 μL of 1× binding buffer and subjected to BD FACS Calibur flow cytometer analysis using BD Cell Quest Pro software (Becton–Dickinson, USA).

[4] = tested on: MCF-10A cells; test: MTT cell viability assay, normal MCF-10A; format: cell-based; conditions: Homo sapiens
Protocol: as §2, §3, §4

[5] = tested on: HL-60 cells; test: MTT cell viability assay, HL-60; format: cell-based; conditions: Homo sapiens, HL-60, MTT
Protocol: as §2, §3, §4

[6] = tested on: HepG2 cells; test: MTT cell viability assay, HepG2; format: cell-based; conditions: Homo sapiens
Protocol: as §2, §3, §4

[7] = tested on: MDA-MB-231 cells; test: MTT cell viability assay, MDA-MB-231; format: cell-based, human; conditions: for IC50: Homo sapiens, MDA-MB-231, MTT
Protocol: as §2, §3, §4

[8] = tested on: PLK1, p21 and WEE-1 expression in MCF-7 cells; test: qRT-PCR of cell cycle related genes
[9] = tested on: MCF-7 cells; test: Fluorescent microscopy with acridine orange/propidium iodide staining, count of 200 cells; format: cell-based, human; conditions: MCF-7, 25 µM, 72 h, AO/PI, scoring of 200 cells
Protocol: Prior to harvest the cell, morphology of control and DK1 treated MCF-7 was observed using light microscope. In addition, harvested control and treated MCF-7 cells were resuspended in 100 μL of Phosphate buffer saline (PBS), stained with 10 μg/mL of Acridine orange (AO) and propidium iodide (PI) and viewed under fluorescent microscope (Nikon, Japan).

[10] = tested on: ROS in MCF-7 cells; test: Intracellular reactive oxygen species (ROS) detection, DCFH-DA; format: cell-based, human; conditions: MCF-7, 25 µM
Protocol: (§5) Harvested cell was subjected to two times of freeze and thaw in 100 μL of PBS. The lysed cell was then pelleted and the supernatant was subjected to GSH and ROS quantification using Glutathione assay kit (Sigma, USA) and OxiSelect ROS assay kit (Cell Biolabs, USA) according to manufacturers’ protocol.
(§6) For GSH quantification, 10 μL of cell lysate supernatant was added with 150 μL of working solution (1.5 mg/mL DTNB solution, 6 units/mL glutathione reductase and 1× assay buffer), incubated for 5 min and added with 50 μL of NADPH solution (0.16 mg/mL). The absorbance was read at a wavelength of 412 nm by ELISA plate reader (Bio-Tek instrument, USA) for every minute in duration of 5 min. For intracellular ROS quantification, supernatant was added with 10 μM DCFH-DA for 30 min at 37 °C. Then, the fluorescence intensity of DCFH-DA was measured using microplate fluorometer (Thermo Scientific, USA) with a 485/538 nm filter. Fold change of GSH and ROS was calculated by dividing absorbance or fluorescence intensity of DK1 treated MCF-7 with untreated control MCF-7.

[11] = tested on: MCF-7 cells; test: Flow cytometry cell cycle analysis (PI); format: cell-based, human; conditions: MCF-7, 25 µM
Protocol: Cell cycle progression of control and DK1 treated MCF-7 was analysed using BD FACS Calibur flow cytometer (Becton–Dickinson, USA). Briefly, harvested cells were added with 250 μL of trypsin buffer with 10 min incubation, followed by 200 μL of trypsin inhibitor with RNase buffer with 10 min incubation, and finally stained with 200 μL of propidium iodide (PI) from BD Cycletest Plus kit (Becton–Dickinson, USA). All stained cells were subjected to BD FACS Calibur flow cytometer analysis using BD Cell Quest Pro software (Becton–Dickinson, USA).

[12] = tested on: CDC2 and phospho-CDC2 (Tyr15) in MCF-7 cells; test: Western blot analysis of CDC2 and p-CDC2 (Tyr15); format: cell-based, human; conditions: MCF-7, 25 µM, 48 and 72 h
Protocol: as §1

[13] = tested on: cytochrome c in MCF-7 cells; test: Cytochrome c ELISA; format: cell-based, human; conditions: MCF-7, 25 µM
Protocol: (§7) The level of active caspase 9 and cytochrome c of the control and DK1 treated MCF-7 were quantified using CaspGLOW Red Active Caspase-9 staining kit (BioVision, USA) and human cytochrome c platinum ELISA (eBioscience Affymetrix, USA), respectively according to manufacturers’ protocol. Fold change of caspase 9 and cytochrome c was calculated by dividing fluorescence intensity or absorbance of DK1 treated MCF-7 with untreated control MCF-7.

[14] = tested on: GSH in MCF-7 cells; test: Intracellular glutathione (GSH) quantification; format: cell-based, human; conditions: MCF-7, 25 µM
Protocol: as §5, §6

[15] = tested on: active caspase 9 in MCF-7 cells; test: Active caspase 9 staining (CaspGLOW), fluorometry; format: cell-based, human; conditions: MCF-7, 25 µM
Protocol: as §7

[16] = tested on: MCF-7 cells; conditions: on MCF-7; cited from earlier work
[17] = IC50 MCF-10A / IC50 MCF-7, 24 h
[18] = IC50 MCF-10A / IC50 MCF-7, 72 h
[19] = IC50 MCF-10A / IC50 MDA-MB-231, 24 h
[20] = IC50 MCF-10A / IC50 MDA-MB-231, 48 h
[21] = IC50 MCF-10A / IC50 MDA-MB-231, 72 h
[22] = MCF-7, 25 µM, 72 h, AnnexinV/PI
[23] = MCF-7, 25 µM, qRT-PCR, p < 0.05

COc1cc(/C=C/C(=O)CC(=O)/C=C/c2ccc(O)c(OC)c2)ccc1O [Curcumin, diferuloylmethane]
deregulation of apoptosis related genes or proteins, particularly p53, compared to DK1 ([1]; MCF-7, curcumin 30 µM, 72 h): lower degree of deregulation
significant upregulation of p53 ([1]; curcumin treated MCF-7): absent
IC50 ([2]; 24 h): 40.7 ± 3.24 µM
IC50 ([2]; 48 h): 36.6 ± 2.31 µM
IC50 ([2]; 72 h): 30.2 ± 2.36 µM
Selective index of MCF-10A/MCF-7 [2, 17]: 4.67
Selective index of MCF-10A/MCF-7 [2, 18]: 3.33
late apoptosis, folds lower than DK1 treatment ([3]; MCF-7, 72 h, curcumin 30 µM vs DK1 25 µM): 2.6 folds
late apoptosis ([3]; MCF-7, curcumin 30 µM, 72 h, AnnexinV/PI): 15%
IC50 ([4]; 24 h): 190 ± 3.67 µM
IC50 ([4]; 48 h): 114 ± 3.57 µM
IC50 ([4]; 72 h): 100 ± 3.17 µM
IC50 ([5]; 24 h): 57 ± 3.75 µM
IC50 ([5]; 48 h): 29.9 ± 3.11 µM
IC50 ([5]; 72 h): 21.7 ± 1.76 µM
IC50 ([6]; 24 h): 67.9 ± 2.88 µM
IC50 ([6]; 48 h): 40.7 ± 2.76 µM
IC50 ([6]; 72 h): 24.4 ± 2.25 µM
IC50 ([7]; 24 h): 35.3 ± 4.16 µM
IC50 ([7]; 48 h): 21.7 ± 1.87 µM
IC50 ([7]; 72 h): 21.7 ± 3.18 µM
Selective index of MCF-10A/MDA [7, 19]: 5.38
Selective index of MCF-10A/MDA [7, 20]: 5.25
Selective index of MCF-10A/MDA [7, 21]: 4.63
deregulation of cell cycle regulation related genes compared to DK1 ([8]; MCF-7, curcumin 30 µM, 72 h): lower degree of deregulation

O=C(/C=C(\O)c1ccccc1)c1ccccc1O [DK1, (Z)-3-hydroxy-1-(2-hydroxyphenyl)-3-phenylprop-2-en-1-one]
promotion of p53 protein compared to control ([1]; 48 h): ~ 1.6 fold
promotion of p53 protein compared to control ([1]; 72 h): ~ 2.0 fold
cells undergone apoptosis [9]: ~ 12.5%
cells undergone late apoptosis/necrosis [9]: ~ 31%
IC50 ([2]; 24 h): 96.8 ± 4.87 µM
IC50 ([2]; 48 h): 33.3 ± 3.5 µM
IC50 ([2]; 72 h): 25 ± 3.71 µM
Selective index of MCF-10A/MCF-7 [2, 17]: >2.17
Selective index of MCF-10A/MCF-7 ([2]; IC50 MCF-10A / IC50 MCF-7, 48 h): 3.75
Selective index of MCF-10A/MCF-7 [2, 18]: 4.17
SI values ([2]; MCF-7, overall statement): higher than 2
generation of ROS compared to control ([10]; 48 h): ~ 1.9 fold
generation of ROS compared to control ([10]; 72 h): ~ 2.6 fold
percentage of cell population in G2/M phase ([11]; 24 h (control ~18%)): ~ 25%
percentage of cell population in G2/M phase ([11]; 48 h (control ~18%)): ~ 26%
percentage of cell population in G2/M phase ([11]; 72 h (control ~18%)): ~ 31%
CDC2 protein level [12]: reduction
phospho-CDC2 (Tyr15) protein level [12]: accumulation
early apoptosis [3, 22]: ~ 14%
late apoptosis [3, 22]: ~ 39%
promotion of cytochrome c compared to control ([13]; 48 h): ~ 2.1 fold
promotion of cytochrome c compared to control ([13]; 72 h): ~ 2.8 fold
IC50 ([4]; 24 h): > 208 µM
IC50 ([4]; 48 h): 126 ± 3.67 µM
IC50 ([4]; 72 h): 104 ± 5.21 µM
reduction of GSH level compared to control ([14]; 48 h): ~ 2.2 fold
reduction of GSH level compared to control ([14]; 72 h): ~ 3.3 fold
IC50 ([5]; 24 h): 138 ± 2.16 µM
IC50 ([5]; 48 h): 124 ± 3.27 µM
IC50 ([5]; 72 h): 73.4 ± 2.65 µM
promotion of active caspase 9 compared to control ([15]; 48 h): ~ 1.9 fold
promotion of active caspase 9 compared to control ([15]; 72 h): ~ 2.4 fold
IC50 ([6]; 24 h): > 150 µM
IC50 ([6]; 48 h): 138 ± 4.13 µM
IC50 ([6]; 72 h): 64.2 ± 3.12 µM
IC50 ([7]; 24 h): 104 ± 5.23 µM
IC50 ([7]; 48 h): 45.8 ± 4.66 µM
IC50 ([7]; 72 h): 37.5 ± 4.82 µM
Selective index of MCF-10A/MDA [7, 19]: >2.00
Selective index of MCF-10A/MDA [7, 20]: 2.72
Selective index of MCF-10A/MDA [7, 21]: 2.77
SI values ([7]; MDA-MB-231, overall statement): higher than 2
expression of PLK1 compared to control [8, 23]: downregulated
expression of WEE-1 compared to control [8, 23]: enhanced
expression of p21 compared to control [8, 23]: enhanced

COc1ccc(/C=C/C(=O)c2c(O)cc(OC)cc2OC)cc1 [flavokawain A]
SI value [16]: 3.78
